Here are results for three compounds from patent US20130331389A1, “Methods and Compositions for Cardiomyocyte Replenishment by Endogenous and Progenitor Stem Cells” (NATIONAL CHENG KUNG UNIVERSITY, priority 2012, published 2013).

Assay [1] has as its system MerCreMer/ZEG (M/Z) mice. Briefly: Cardiomyocyte replenishment after myocardial infarction, GFP+ / β-Gal+ cardiomyocyte counting. Format: in vivo, mouse. As to the method: All experiments involving animals were conducted in accordance with the Guide for the Use and Care of Laboratory Animals, and all animal protocols have been approved by National Cheng Kung University. Sca-1^− GFP, B6.Cg-Tg(Ly6a-GFP)G5Dzk/J and EP2^−/−, B6.129-Ptger2^tm/Brey/J mice were obtained from Jackson Laboratory. The double transgenic MerCreMer/ZEG (M/Z) mice were generated by crossbreeding MerCreMer and Z/EG mice (Jackson Laboratory), which have C57BL/6SV129 and C57BL/6J (N7) background strains, respectively. The MerCreMer mice contain a tamoxifen-inducible Cre recombinase fusion protein driven by the cardiomyocyte-specific α-MHC promoter. In Z/EG mice, GFP replace constitutive β-Gal expression after the removal of a LoxP-flanked stop sequence by Cre.
M/Z mice were subjected to experimental myocardial infarction (MI) one month after the last tamoxifen injection. MI was generated by ligating the left anterior descending coronary artery at 2-3 mm distal to the left atrial appendage. For cell transplantation experiments, intramyocardial injections were performed immediately after coronary ligation. A total of 6×10^5 cardiac Sca-1^+ cells were injected per mouse in two divided injections (5 μl/injection). For BrdU labeling, the mice were subcutaneously implanted with osmotic minipump (Alzet) at the time of surgery and 40 μg/μl of BrdU (Sigma) was administrated. For immunohistological studies, mice were sacrificed and the hearts were harvested at different time points following experimental MI surgery. Cardiac performances were assessed by echocardiography at 28 and 56 days after operation using Vevo 770 (Visualsonics, Toronto, Canada).
(§1) To induce Cre recombination to achieve GFP labeling of cardiomyocytes, tamoxifen (Sigma) was dissolved in sunflower oil (Sigma) at a concentration of 5 mg/ml. The tamoxifen solution was injected intraperitoneally into M/Z mice daily at a dosage of 40 μg per 1 g body weight for 14 days, and the same dosage was injected twice daily for short-term labeling using methods known in the art (Laugwitz, K.-L. et al. Nature 433, 647-653 (2005)). All experimental conditions were optimized prior to the PGE2, indomethacin and TGF-β Type I Receptor Kinase Inhibitor II (ALK5 Inhibitor II, ALK5i, Merck) treatments. The mice treated with PGE2 or PGI2 (Vegiopoulos, A. et al. Science 328, 1158-1161 (2010)) (both from Sigma) were injected intraperitoneally with 3.33 ng of drug per 1 g of body weight dissolved in absolute ethanol twice daily. For the indomethacin treatment, mice were fed with water containing indomethacin (Sigma, 15 μg/ml) for different periods of time. The indomethacin-containing water was changed every 3 days. The mice subjected to the celecoxib (Lyons, T. R. et al. Nat. Med. 17, 1109-1115 (2011)) (Sigma) treatment were injected intraperitoneally with 5 μg of drug per 1 g of body weight daily. For ALK5i treatment, aged mice were injected intraperitoneally once per day with 1 μg of drug per 1 g of body weight one day before surgery and continuously until day 10 post-MI. Celecoxib and ALK5i were dissolved in ethanol and DMSO, respectively.
All of the cellular quantifications were performed double-blindly to minimize personal bias. […] For the cardiomyocyte cell counts, 3 sections from each heart, and 2 infarction border zones and 1 remote area from each section were analyzed at a magnification of 200× by light microscopy. Cells with visible sarcomere structures were analyzed, and the average number of cells counted was 171.8±5.8 per photo image. For the small cardiac cell counts, more than five sections from each heart were analyzed at a magnification of 400× using fluorescence microscopy. The average number of cells counted was 17.01±0.99 per photo image, and more than one hundred and fifty cells were analyzed from each heart. As quantification result is the averaged values calculated from the pictures taken from six border zone sections per heart, personal variation has been minimized. […]

The test system of assay [2] is Sca-1. Briefly: Quantitative RT-PCR of Sca-1 in infarct zone of MI heart. Format: in vivo, mouse. The following applies: young mice, day 3 post-MI. As to the method: as §1
The total RNA isolated from the ischemic region or remote area of MI hearts was reverse transcribed using the SuperScript III (Invitrogen) system according to the manufacturer's protocol. For quantitative PCR, the SYBR Green reagent (Maestrogen) was used according to the manufacturer's protocol. The analysis of relative gene expression was performed using the 2̂[−delta delta Ct] method and sequence-specific primers designed for semi-quantitative PCR and real-time RT-PCR (FIG. 11).

For `Cc1cccc(-c2[nH]ncc2-c2ccc3ncccc3n2)n1` [ALK5i], in assay [1] (aged mice, 1 μg per 1 g i.p. once per day from one day before surgery until day 10 post-MI, day 14 post-MI, P<0.01), the “cardiomyocyte replenishment in comparison with the vehicle control group” value is recorded as “restored cardiomyocyte replenishment”.
On to `CCCCC[C@H](O)/C=C/[C@@H]1[C@H]2C/C(=C/CCCC(=O)O)O[C@H]2C[C@H]1O` [PGI2, prostaglandin I2], for which the “significant increase of cardiomyocyte replenishment compared to the vehicle control (in words)” value in assay [1] (border zone, 3.33 ng per 1 g i.p. twice daily for 14 days) is recorded as “not”.
With `COc1ccc2c(c1)c(CC(=O)O)c(C)n2C(=O)c1ccc(Cl)cc1` [indomethacin], the “stem cell-dependent cardiomyocyte reconstitution” value in assay [1] (administered more than 5 days post-MI (Indo 9 D)) was “no significant effect”. The “drop of cardiomyocyte restoration rate” value in assay [1] (border zone, Indo 14D (1 day before and 14 days after MI), 15 μg/ml in water, P<0.05) was “about 10%”. Moreover, the cardiomyocyte replenishment result in assay [1] (border zone, given during the first 5 days post-MI (Indo 5 D), P<0.05) was “sufficient to impair cardiomyocyte replenishment”. Moreover, the MI-induced cardiomyocyte replenishment entry in assay [1] (remote area, indomethacin in water) was “abrogated”. For the same compound, the Sca-1 expression entry in assay [2] is reported as “repressed”.
